# Patent US4604383A, “Pyrrolidin-2-ones and medicaments containing them” (Societe Anonyme Styled: SANOFI, priority 1983, dated 1986)
# Like-named read-outs stand apart in the source and are kept apart here.
# Tests used:
# [1] = Antagonism to the convulsions caused by 3-mercaptopropionic acid; type: in vivo, mouse (CD Charles Rivers mice); conditions: mouse, oral, 60 min before 3-mercaptopropionic acid 60 mg/kg s.c.; probit method, confidence limits in parentheses, p <= 0.05; read-out: Median effective dose (ED50) of antagonism to convulsions caused by 3-mercaptopropionic acid
# Experimental: (§1) The anticonvulsant effect of the products in the mouse was evaluated on a model of convulsions caused by electric shock, and on 2 models of convulsions induced by chemical agents: bicuculline and 3-mercaptopropionic acid.
# (§2) The batches were constituted by 10 CD Charles Rivers mice of weights comprised between 20 and 22 g. The products were administered orally 60 minutes before the 3-mercaptopropionic acid (60 mg/kg s.c.).
# [2] = Antagonism of convulsions and of mortality caused by bicucullin; type: in vivo, mouse (CD Charles Rivers mice); conditions: mouse
# Experimental: as §1
# (§3) The batches were constituted by 10 CD Charles Rivers mice of weights comprised between 20 and 22 g. The products were administered orally, 60 minutes before the bicucullin (0.8 mg/kg, i.v.).
# [3] = Acute toxicity, determination of the lethal dose in the mouse; conditions: in vivo, po, read-out: Percent toxicity (animals which die in 72 hours)
# Experimental: The toxicity of the products according to the invention was studied: the products were administered orally, to batches of 5 CD Charles Rivers female mice, of weights comprised between 20 and 24 g. The toxicity was noted during the 72 hours which followed the administration of the products.
# The results expressed as a percentage of animals which die in the 72 hours following the oral administration of the products, are noted in the preceding table.
# [4] = Evaluation of the anticonvulsant activity (electric shock, bicucullin and 3-mercaptopropionic acid taken together); type: in vivo; conditions: mouse, oral
# Experimental: as §1
# (§4) The test was slightly modified from that of Swinyard et al., J. Pharm. Exp. Ther., 1952, 106, 319-330 and Asami et al. Arzneim. Forsch., 1974, 24 (1), 1563-1568. The equipment was composed of a Racia shock generator provided with two occular electrodes delivering a current of 60 volts for 0.3 seconds. The batches were constituted by 10 CD1 Charles Rivers mice of weight comprised between 20 and 24 g. The products were administered orally, 60 minutes before the electroshock.
# as §3, §2
# [5] = Antagonism of the convulsions induced by electric shock; type: in vivo, mouse (CD1 Charles Rivers mice); conditions: mouse, at 200 mg/kg p.os.
# Experimental: as §1, §4
# [6] = Effect on spontaneous motility (Boissier and Simon activity test, actimetric cages); type: in vivo, mouse (CD1 Charles Rivers female mice); conditions: mouse
# Experimental: The spontaneous motility of the animals was measured by means of the activity test developed by Boissier and Simon, Arch. Int. Pharmacocyn., 1965, 158, 212-221. The equipment is composed of actimetric cages, type Apelab (26×21.5×10 cm), traversed by two light rays which fall on a photoelectric cell. The batches were constituted by CD1 Charles Rivers female mice, of weight comprised between 20 and 24 g. The animals were placed individually in cages 45 minutes after oral administration of the products at the dose of 100 mg/kg. Each traversal by a light beam was counted by an individual counter. The scores corresponding to the movements of the animals were recorded for 10 minutes, and compared with the scores taken on batches of control animals, treated only with the vehicle (5% gum arabic).
# [7] = Potentiation of narcosis with pentobarbital (loss of righting reflex); type: in vivo, mouse (CD1 Charles Rivers mice); conditions: mouse
# Experimental: For the purpose of evaluating the hypnogenic power of the products, their capacity to potentiate the effects of a subnarcotic dose of pentabarbital in the mouse was studied. The batches were constituted by 10 CD1 Charles Rivers mice, of weight comprised between 20 and 24 g.
# The pentobarbital (20 mg/kg, i.p.) was administered 60 minutes after administration of the products. The drowsiness criterion taken was the loss of the righting reflex.
smiles,measurement,setting,value
"O=C1CCC(Cc2ccccc2)N1 (stereo not drawn) [Compound A, 5-phenylmethyl 2-pyrrolidinone, reference compound]",ED50,[1],> 100 mg/kg
same,Antagonism to bicucullin mortality,[2]; at 200 (mg/kg p.o.),30%
same,Median effective dose (ED50) of the antagonism to the effects of bicucullin: Tonic convulsions,"[2]; oral, 60 min before bicucullin 0.8 mg/kg i.v., probit method, confidence limits in parentheses, p < 0.05",inactive at 200
same,mortality at 72 h,[3]; 250 mg/kg p.os.,0%
same,mortality at 72 h,[3]; 500 mg/kg p.os.,0%
same,mortality at 72 h,[3]; 1000 mg/kg p.os.,60%
same,Anticonvulsant properties (in words),[4],does not show anticonvulsant properties
same,Inhibition of electric shock convulsions,[5],40%
same,"Locomotor activity, score percent/controls","[6]; 100 mg/kg p.os., 45 min after administration, 10 min recording, * P <= 0.05, ** P <= 0.01",+1.2%
same,Effect on spontaneous motility (in words),[6]; oral dose of 100 mg/kg,does not act on the spontaneous motility
same,Hypnogenic effect / potentiation of narcosis with pentobarbital (in words),[7]; oral,devoid of hyponogenic effect
same,"Potentiation of pentobarbital, percent of animals in narcosis","[7]; products at 100 mg/kg p.os., 60 min before pentobarbital 20 mg/kg i.p.",0%
